No end group written: not given here.
System: explants of human skin
Experiment: Release of histamine induced by CRH in explants of human skin (ex vivo cutaneous stress model, ELISA)
Type: cell-based
Protocol: To evaluate the activity of the combination of the invention on the release of histamine, which is an allergy mediator, a cutaneous stress model is reproduced ex vivo by applying a solution of CRH in the survival medium of explants of human skin.
Three explants of skin with a diameter of 8 mm are prepared from healthy human skin originating from surgical removal.
They are placed in 24-well plates and left to stand in an appropriate medium (MCDB 153, insulin, CaCl2, gentamycin) for 24 hours.
CRH (from Neosystem) is dissolved at a concentration of 231 μM in phosphate buffer (PBS) (pH 7.2).
First of all a 5% by weight (50 mg/ml) solution is prepared for each of the essential oils, in ethanol for the helichrysum oil and in DMSO for the cannabis oil.
The 5% by weight solutions are subsequently diluted at the time of use to 1/1000th in the survival medium of the explants, to give the different treatment solutions.
The combination of cannabis and helichrysum essential oils is tested in the form of a treatment solution containing these two essential oils, each at a concentration of 0.005% by weight (50:50 ratio). Each essential oil is likewise tested on its own in the form of a 0.005% by weight treatment solution.
In each well the explant is at the surface of the survival medium. […]

corticotropin-releasing hormone (SEEPPISLDLTFHLLREVLEMARAEQLAQQAHSNRKLMEII; not fully specified (C-terminus); ends and bridges not checked; UniProt P06850 154-194, looked up) [CRH, CRH (from Neosystem), stimulus of histamine release, positive control]
Stimulation of the release of histamine by skin explants (in words) (CRH on skin explants maintained in survival mode): induces significant stimulation of the release of histamine
Histamine (stimulated with CRH 7.7 μM for 2 hours, no essential oil pretreatment (positive control), solvent control 15.3 +/− 1.0): 21.8 ± 1.4 ng/mL
